Test results published in patent publication US10323018B2 (Millennium Pharmaceuticals, Inc., priority 2015, dated 2019).

What was measured:
[1] = target: hNAMPT protein (Homo sapiens (Human), UniProt P43490); test: NAMPT enzyme assay (TR-FRET/HTRF with BodiPY ligand); type: binding; details: for inhibition at 1 µM: NAMPT inhibition at compound concentration 1 μM, read-out: Percent Inhibition; for IC50: NAMPT inhibition, IC50 range class
Method in brief: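 Ligand displacement by TR-FRET: BodiPY emission (520 nm) over terbium (486 nm) after 320 nm excitation. Compound, BodiPY ligand, hNAMPT and anti-6His-Tb incubated 1 h at room temperature, dark, at pH 7.5. Percent inhibition computed versus DMSO; concentration-response curves fitted for IC50.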

[2] = tested on: PC3 cells; test: PC3 growth inhibition (Cell-titer glo, 72 hours); type: cell-based; details: Homo sapiens, PC-3, 72 h, read-out: Percent Viability, PC3 cells, compound concentration 1.667 μM, 72 hours
Method in brief: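 After 72 h compound treatment in AIM serum-free medium (37 °C, 5% CO2), viability of overnight-plated PC3 cells (8×10^4 cells/ml, RPMI1640-maintained) is read by CellTiter-Glo luminescence versus DMSO. Curves give GI50, LD50 or single-concentration % remaining viability.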

Sequence of hNAMPT protein (P43490 whole entry): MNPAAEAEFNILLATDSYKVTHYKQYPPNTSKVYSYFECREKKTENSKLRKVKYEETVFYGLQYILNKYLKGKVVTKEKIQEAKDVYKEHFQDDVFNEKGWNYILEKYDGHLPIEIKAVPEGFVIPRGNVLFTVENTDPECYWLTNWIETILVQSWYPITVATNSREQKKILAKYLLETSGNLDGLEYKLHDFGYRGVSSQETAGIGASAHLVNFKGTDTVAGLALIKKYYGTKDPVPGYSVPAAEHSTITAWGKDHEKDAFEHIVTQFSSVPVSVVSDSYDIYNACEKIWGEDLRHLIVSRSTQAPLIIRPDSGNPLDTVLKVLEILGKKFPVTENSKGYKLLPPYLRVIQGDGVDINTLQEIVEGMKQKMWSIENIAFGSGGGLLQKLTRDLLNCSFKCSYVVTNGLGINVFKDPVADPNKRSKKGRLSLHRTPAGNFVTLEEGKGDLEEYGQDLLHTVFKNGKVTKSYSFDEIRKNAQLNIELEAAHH

## CCOc1cc(-c2ccnc(C)c2)nc2cc(C(=O)NCCCc3[nH]nnc3C)ccc12 [Compound I-75, 4-ethoxy-2-(2-methylpyridin-4-yl)-N-[3-(4-methyl-1H-1,2,3-triazol-5-yl)propyl]quinoline-7-carboxamide]
[1]
  inhibition at 1 µM: 94%
  IC50: 10 to 50 nM
[2]
  viability at 1.667 µM: 1%

## CCOc1cc(-c2ccc(=O)n(C)c2)nc2cc(C(=O)NCCc3[nH]nnc3C)ccc12 [Compound I-76, 4-ethoxy-2-(1-methyl-6-oxo-1,6-dihydropyridin-3-yl)-N-[2-(4-methyl-1H-1,2,3-triazol-5-yl)ethyl]quinoline-7-carboxamide]
[1]
  inhibition at 1 µM: 93%
  IC50: 50 to 100 nM
[2]
  viability at 1.667 µM: 11%

## CCOc1cc(-c2ccc(C)nc2)nc2cc(C(=O)NCCc3[nH]nnc3C)ccc12 [Compound I-77, 4-ethoxy-2-(6-methylpyridin-3-yl)-N-[2-(4-methyl-1H-1,2,3-triazol-5-yl)ethyl]quinoline-7-carboxamide]
[1]
  inhibition at 1 µM: 97%
  IC50: 10 to 50 nM
[2]
  viability at 1.667 µM: 1%

## CCOc1c(F)c(-c2ccc(F)cc2)nc2cc(C(=O)NCCCc3nnc[nH]3)ccc12 [Compound I-78, 4-ethoxy-3-fluoro-2-(4-fluorophenyl)-N-[3-(4H-1,2,4-triazol-3-yl)propyl]quinoline-7-carboxamide]
[1]
  inhibition at 1 µM: 99%
  IC50: < 10 nM
[2]
  viability at 1.667 µM: 2%

## CCOc1cc(-c2ccc(F)cc2)nc2cc(C(=O)NCc3cc4cnccc4s3)ccc12 [Compound I-79, 4-ethoxy-2-(4-fluorophenyl)-N-(thieno[3,2-c]pyridin-2-ylmethyl)quinoline-7-carboxamide]
[1]
  inhibition at 1 µM: 99%
  IC50: < 10 nM
[2]
  viability at 1.667 µM: 2%

## CCOc1cc(-c2ccc(F)cc2)nc2cc(C(=O)NCc3cc4[nH]ncc4s3)ccc12 [Compound I-80, 4-ethoxy-2-(4-fluorophenyl)-N-(1H-thieno[3,2-c]pyrazol-5-ylmethyl)quinoline-7-carboxamide]
[1]
  inhibition at 1 µM: 98%
  IC50: < 10 nM
[2]
  viability at 1.667 µM: 2%

## COCCOc1cc(-c2ccc(F)cc2)nc2cc(C(=O)NCC(F)(F)Cc3nnc[nH]3)ccc12 [Compound I-81, N-[2,2-difluoro-3-(4H-1,2,4-triazol-3-yl)propyl]-2-(4-fluorophenyl)-4-(2-methoxyethoxy)quinoline-7-carboxamide]
[1]
  inhibition at 1 µM: 67%
  IC50: > 100 nM
[2]
  viability at 1.667 µM: 2%

## COCCOc1cc(-c2ccc(F)cc2)nc2cc(C(=O)NCc3ccn4ncnc4c3)ccc12 [Compound I-82, 2-(4-fluorophenyl)-4-(2-methoxyethoxy)-N-([1,2,4]triazolo[1,5-a]pyridin-7-ylmethyl)quinoline-7-carboxamide]
[1]
  inhibition at 1 µM: 100%
  IC50: < 10 nM
[2]
  viability at 1.667 µM: 2%

## CCOc1cc(-c2ccnc(OC)c2)nc2cc(C(=O)NCCc3[nH]nnc3C)ccc12 [Compound I-83, 4-ethoxy-2-(2-methoxypyridin-4-yl)-N-[2-(4-methyl-1H-1,2,3-triazol-5-yl)ethyl]quinoline-7-carboxamide]
[1]
  inhibition at 1 µM: 96%
  IC50: 10 to 50 nM
[2]
  viability at 1.667 µM: 2%

## CCOc1cc(-c2ccc(F)cc2)nc2cc(C(=O)NCc3ccc4ncnn4c3)ccc12 [Compound I-84, 4-ethoxy-2-(4-fluorophenyl)-N-([1,2,4]triazolo[1,5-a]pyridin-6-ylmethyl)quinoline-7-carboxamide]
[1]
  inhibition at 1 µM: 99%
  IC50: < 10 nM
[2]
  viability at 1.667 µM: 1%

## CCOc1cc(-c2ccc(F)cc2OC)nc2cc(C(=O)NCc3ccn4ncnc4c3)ccc12 [Compound I-85, 4-ethoxy-2-(4-fluoro-2-methoxyphenyl)-N-([1,2,4]triazolo[1,5-a]pyridin-7-ylmethyl)quinoline-7-carboxamide]
[1]
  inhibition at 1 µM: 100%
  IC50: < 10 nM
[2]
  viability at 1.667 µM: 2%

## CCOc1cc(-c2ccnc(C)c2)nc2cc(C(=O)NCc3ccn4ncnc4c3)ccc12 [Compound I-86, 4-ethoxy-2-(2-methylpyridin-4-yl)-N-([1,2,4]triazolo[1,5-a]pyridin-7-ylmethyl)quinoline-7-carboxamide]
[1]
  inhibition at 1 µM: 99%
  IC50: < 10 nM
[2]
  viability at 1.667 µM: 2%

## CCOc1cc(-c2ccc(C)nc2OC)nc2cc(C(=O)NCCc3[nH]nnc3C)ccc12 [Compound I-87, 4-ethoxy-2-(2-methoxy-6-methylpyridin-3-yl)-N-[2-(4-methyl-1H-1,2,3-triazol-5-yl)ethyl]quinoline-7-carboxamide]
[1]
  inhibition at 1 µM: 94%
  IC50: 10 to 50 nM
[2]
  viability at 1.667 µM: 2%

## CCOc1cc(-c2ccc(OC)nc2)nc2cc(C(=O)NCCc3[nH]nnc3C)ccc12 [Compound I-88, 4-ethoxy-2-(6-methoxypyridin-3-yl)-N-[2-(4-methyl-1H-1,2,3-triazol-5-yl)ethyl]quinoline-7-carboxamide]
[1]
  inhibition at 1 µM: 97%
  IC50: 10 to 50 nM
[2]
  viability at 1.667 µM: 1%

## CCOc1cc(-c2cnc(OC)c(F)c2)nc2cc(C(=O)NCCCc3nnc[nH]3)ccc12 [Compound I-89, 4-ethoxy-2-(5-fluoro-6-methoxypyridin-3-yl)-N-[3-(4H-1,2,4-triazol-3-yl)propyl]quinoline-7-carboxamide]
[1]
  inhibition at 1 µM: 96%
  IC50: 10 to 50 nM
[2]
  viability at 1.667 µM: 2%

## CCOc1cc(-c2ccnc(OC)c2F)nc2cc(C(=O)NCCCc3nnc[nH]3)ccc12 [Compound I-90, 4-ethoxy-2-(3-fluoro-2-methoxypyridin-4-yl)-N-[3-(4H-1,2,4-triazol-3-yl)propyl]quinoline-7-carboxamide]
[1]
  inhibition at 1 µM: 97%
  IC50: 10 to 50 nM
[2]
  viability at 1.667 µM: 1%

## CCOc1cc(-c2ccc(F)cc2)nc2cc(C(=O)NCC(F)(F)Cc3nnc[nH]3)ccc12 [Compound I-91, N-[2,2-difluoro-3-(4H-1,2,4-triazol-3-yl)propyl]-4-ethoxy-2-(4-fluorophenyl)quinoline-7-carboxamide]
[1]
  inhibition at 1 µM: 80%
  IC50: > 100 nM
[2]
  viability at 1.667 µM: 2%

## CCOc1cc(-c2ccc(C)nc2OC)nc2cc(C(=O)NCCc3c[nH]nc3C)ccc12 [Compound I-92, 4-ethoxy-2-(2-methoxy-6-methylpyridin-3-yl)-N-[2-(3-methyl-1H-pyrazol-4-yl)ethyl]quinoline-7-carboxamide]
[1]
  inhibition at 1 µM: 95%
  IC50: 10 to 50 nM
[2]
  viability at 1.667 µM: 2%

## CCOc1cc(-c2ccc(OC)nc2)nc2cc(C(=O)NCCCc3[nH]nnc3C)ccc12 [Compound I-93, 4-ethoxy-2-(6-methoxypyridin-3-yl)-N-[3-(4-methyl-1H-1,2,3-triazol-5-yl)propyl]quinoline-7-carboxamide]
[1]
  inhibition at 1 µM: 99%
  IC50: 10 to 50 nM
[2]
  viability at 1.667 µM: 2%

## CCOc1cc(-c2ccc(C)nc2OC)nc2cc(C(=O)NCCCc3[nH]nnc3C)ccc12 [Compound I-94, 4-ethoxy-2-(2-methoxy-6-methylpyridin-3-yl)-N-[3-(4-methyl-1H-1,2,3-triazol-5-yl)propyl]quinoline-7-carboxamide]
[1]
  inhibition at 1 µM: 97%
  IC50: 10 to 50 nM
[2]
  viability at 1.667 µM: 1%

## CCOc1cc(-c2ccn(C)c(=O)c2)nc2cc(C(=O)NCCCc3cnn[nH]3)ccc12 [Compound I-95, 4-ethoxy-2-(1-methyl-2-oxo-1,2-dihydropyridin-4-yl)-N-[3-(1H-1,2,3-triazol-5-yl)propyl]quinoline-7-carboxamide]
[1]
  inhibition at 1 µM: > 99%
  IC50: < 10 nM
[2]
  viability at 1.667 µM: 1%

## CCOc1cc(-c2ccc(=O)n(C)c2)nc2cc(C(=O)NCCCc3cnn[nH]3)ccc12 [Compound I-96, 4-ethoxy-2-(1-methyl-6-oxo-1,6-dihydropyridin-3-yl)-N-[3-(1H-1,2,3-triazol-5-yl)propyl]quinoline-7-carboxamide]
[1]
  inhibition at 1 µM: > 99%
  IC50: < 10 nM
[2]
  viability at 1.667 µM: 1%

## CCOc1cc(-c2ccc(=O)n(C)c2)nc2cc(C(=O)NCCCc3[nH]nnc3C)ccc12 [Compound I-97, 4-ethoxy-2-(1-methyl-6-oxo-1,6-dihydropyridin-3-yl)-N-[3-(4-methyl-1H-1,2,3-triazol-5-yl)propyl]quinoline-7-carboxamide]
[1]
  inhibition at 1 µM: > 99%
  IC50: 10 to 50 nM
[2]
  viability at 1.667 µM: 2%

## CCOc1cc(-c2ccc(=O)n(C)c2)nc2cc(C(=O)NCCc3c[nH]nc3C)ccc12 [Compound I-98, 4-ethoxy-2-(1-methyl-6-oxo-1,6-dihydropyridin-3-yl)-N-[2-(3-methyl-1H-pyrazol-4-yl)ethyl]quinoline-7-carboxamide]
[1]
  inhibition at 1 µM: 99%
  IC50: 50 to 100 nM
[2]
  viability at 1.667 µM: 1%

## CCOc1cc(-c2ccnc(C)c2)nc2cc(C(=O)NCc3nc4cnccc4[nH]3)ccc12 [Compound I-99, 4-ethoxy-N-(1H-imidazo[4,5-c]pyridin-2-ylmethyl)-2-(2-methylpyridin-4-yl)quinoline-7-carboxamide]
[1]
  inhibition at 1 µM: > 99%
  IC50: < 10 nM
[2]
  viability at 1.667 µM: 2%

## CCOc1cc(-c2ccnc(OC)c2)nc2cc(C(=O)NCCc3c[nH]nc3C)ccc12 [Compound I-100, 4-ethoxy-2-(2-methoxypyridin-4-yl)-N-[2-(3-methyl-1H-pyrazol-4-yl)ethyl]quinoline-7-carboxamide]
[1]
  inhibition at 1 µM: 92%
  IC50: 50 to 100 nM
[2]
  viability at 1.667 µM: 2%

## CCOc1cc(-c2ccc(OC)nc2)nc2cc(C(=O)NCCCc3nnc[nH]3)ccc12 [Compound I-101, 4-ethoxy-2-(6-methoxypyridin-3-yl)-N-[3-(4H-1,2,4-triazol-3-yl)propyl]quinoline-7-carboxamide]
[1]
  inhibition at 1 µM: 96%
  IC50: 10 to 50 nM
[2]
  viability at 1.667 µM: 2%
